This is an account of results in ChEMBL document CHEMBL4270538, “Targeting prohibitin with small molecules to promote melanogenesis and apoptosis in melanoma cells” (Eur J Med Chem, 2018).

Calls of active or inactive are those of the source. The calls are words filed in the database; no cut-off is given here.

For test [1], the target named is Prohibitin-2 (Homo sapiens) (UniProt Q99623). Nature of the test: Induction of PHB2-mediated melanogenesis in human HBL cells assessed as pigmentation at 10 uM after 10 days relative to control. Format: cell-based.
Test [2] has the same target. The experiment in a line: Induction of PHB2-mediated melanogenesis in human HBL cells assessed as pigmentation at 1 uM after 10 days relative to control. It is filed as cell-based.
In a further test the test system is HBL. The experiment in a line: Induction of apoptosis in human HBL cells at 1 to 10 uM after 48 hrs by Annexin V-PE/7-AAD staining based flow cytometry. It is filed as functional, cell-based. In general terms: A flow cytometer gives signals particle by particle.
For test [3], the species on record is Homo sapiens. Nature of the test: Induction of apoptosis in human MM162 cells at 1 to 10 uM after 48 hrs by Annexin V-PE/7-AAD staining based flow cytometry. Format: functional, cell-based.
Test [4] is filed under the species Homo sapiens. Nature of the test: Induction of apoptosis in human MM043 cells at 1 to 10 uM after 48 hrs by Annexin V-PE/7-AAD staining based flow cytometry. Format: functional, cell-based.

Chain of Prohibitin-2 (Homo sapiens) (Q99623 whole entry): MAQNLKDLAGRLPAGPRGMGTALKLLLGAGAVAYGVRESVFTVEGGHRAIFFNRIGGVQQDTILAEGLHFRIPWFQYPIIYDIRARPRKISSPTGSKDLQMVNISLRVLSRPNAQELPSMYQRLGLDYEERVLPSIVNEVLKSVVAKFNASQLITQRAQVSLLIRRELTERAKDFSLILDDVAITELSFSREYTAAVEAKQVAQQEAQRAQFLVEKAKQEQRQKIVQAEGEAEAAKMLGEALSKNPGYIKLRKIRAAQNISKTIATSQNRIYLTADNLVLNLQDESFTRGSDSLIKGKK

`COCCNc1nc(NCc2cccc(F)c2)nc(Oc2c(F)c(F)c(F)c(F)c2F)n1`: the fold change (FC) came to 0.76 in test [1] and 0.8 in test [2].

`CCC(CO)Nc1nc(NCc2cccc(F)c2)nc(Oc2c(F)c(F)c(F)c(F)c2F)n1` (stereo not drawn): the figures for the fold change (FC) in test [1] and in test [2] were 1.39 and 1.06, respectively.

In the case of `CC[C@H](CO)Nc1nc(N[C@H](C)c2ccccc2)nc(Oc2c(F)c(F)c(F)c(F)c2F)n1`, the fold change (FC) in test [1] was 0.83; in test [2], 0.94.

For `Fc1cccc(CNc2nc(NCCNc3ccccn3)nc(Oc3c(F)c(F)c(F)c(F)c3F)n2)c1`, the figures for the fold change (FC) in test [1] and in test [2] were 1.09 and 0.97, respectively.

For the compound `Fc1cccc(CNc2nc(NCc3ccccn3)nc(Oc3c(F)c(F)c(F)c(F)c3F)n2)c1`, the fold change (FC) in test [1] was determined as 1.01; in test [2], 1.02.

In the case of `CNc1nc(Oc2c(F)c(F)c(F)c(F)c2F)nc(N(C)[C@@H](C)c2ccccc2)n1`, the fold change (FC) turned out to be 0.86 in test [1] and 1.01 in test [2].

As for `CNc1nc(NC(C)c2cccc(F)c2)nc(Oc2c(F)c(F)c(F)c(F)c2F)n1` (stereo not drawn), the fold change (FC) was found to be 0.84 in test [1] and 1.01 in test [2].

Turning to `CC[C@H](CO)Nc1nc(Oc2c(F)c(F)c(F)c(F)c2F)nc(N(C)[C@@H](C)c2ccccc2)n1`, the fold change (FC) in test [1] stood at 0.89; in test [2], 0.96.

Consider `CC[C@H](CO)Nc1nc(NC(C)c2cccc(F)c2)nc(Oc2c(F)c(F)c(F)c(F)c2F)n1` (stereo partly drawn), for which the fold change (FC) in test [1] worked out at 0.68; in test [2], 0.78.

`Fc1cccc(CNc2nc(NCCCc3ccccc3)nc(Oc3c(F)c(F)c(F)c(F)c3F)n2)c1`: the fold change (FC) in test [1] and in test [2] was 1.07 in each case.

Consider `CN(C)CCNc1nc(Oc2c(F)c(F)c(F)c(F)c2F)nc(N(C)Cc2ccccc2)n1`, for which the fold change (FC) came out at 0.99 in test [1] and 0.98 in test [2].

On to `Fc1cccc(CNc2nc(Oc3c(F)c(F)c(F)c(F)c3F)nc(N3CCCC3)n2)c1`, for which the fold change (FC) in test [1] came to 1.08; in test [2] it was 0.99.

Turning to `CNc1nc(NCc2ccccc2)nc(Oc2c(F)c(F)c(F)c(F)c2F)n1`, the results for the fold change (FC) in test [1] and in test [2] were 0.69 and 0.9, respectively.

With `CNc1nc(Oc2c(F)c(F)c(F)c(F)c2F)nc(N2Cc3ccccc3C2)n1`, the fold change (FC) came out at 0.98 in test [1] and 0.93 in test [2].

For `CN(C)CCCNc1nc(Oc2c(F)c(F)c(F)c(F)c2F)nc(N2CCCc3ccccc3C2)n1`, the fold change (FC) was 1.57 in test [1] and 0.96 in test [2].

Turning to `C[C@@H](c1ccccc1)N(C)c1nc(NCCN(C)C)nc(Oc2c(F)c(F)c(F)c(F)c2F)n1`, the fold change (FC) came out at 0.71 in test [1] and 0.94 in test [2].

Take `CNc1nc(Oc2c(F)c(F)c(F)c(F)c2F)nc(N(C)Cc2cccc(F)c2)n1`: the fold change (FC) in test [1] is 0.78; in test [2], 0.84.

Consider `OCC1CCN(c2nc(NCc3cccc(F)c3)nc(Oc3c(F)c(F)c(F)c(F)c3F)n2)CC1`, for which the results for the fold change (FC) in test [1] and in test [2] were 0.84 and 0.89, respectively.

Regarding `O=C1CCCN1CCCNc1nc(NCc2cccc(F)c2)nc(Oc2c(F)c(F)c(F)c(F)c2F)n1`, the fold change (FC) in test [1] was found to be 1.04; in test [2], 0.99.

Take `Nc1nc(NCc2cccc(F)c2)nc(Oc2c(F)c(F)c(F)c(F)c2F)n1`: the fold change (FC) in test [1] was found to be 0.91; in test [2], 0.92.

Turning to `Fc1cccc(CNc2nc(NCc3ccccc3)nc(Oc3c(F)c(F)c(F)c(F)c3F)n2)c1`, the fold change (FC) in test [1] was found to be 1.1; in test [2], 0.89.

In the case of `CN(C)c1nc(NCc2cccc(F)c2)nc(Oc2c(F)c(F)c(F)c(F)c2F)n1`, the values for the fold change (FC) in test [1] and in test [2] were 1.05 and 1.04, respectively.

For the compound `Fc1cccc(CNc2nc(NCCc3ccccc3)nc(Oc3c(F)c(F)c(F)c(F)c3F)n2)c1`, the fold change (FC) is 1.11 in test [1] and 0.9 in test [2].

As for `Fc1cccc(CNc2nc(NCCCCc3ccccc3)nc(Oc3c(F)c(F)c(F)c(F)c3F)n2)c1`, the fold change (FC) in test [1] worked out at 1; in test [2], 0.9.

Take `CC(Nc1nc(NCCN(C)C)nc(Oc2c(F)c(F)c(F)c(F)c2F)n1)c1cccc(F)c1` (stereo not drawn): the fold change (FC) in test [1] is 0.43; in test [2], 0.77.

Consider `CC(=O)NCCNc1nc(NCc2cccc(F)c2)nc(Oc2c(F)c(F)c(F)c(F)c2F)n1`, for which the results for the fold change (FC) in test [1] and in test [2] were 1 and 0.91, respectively.

`CN(C)CCNc1nc(Oc2c(F)c(F)c(F)c(F)c2F)nc(N(C)Cc2cccc(F)c2)n1`: the fold change (FC) came out at 1.97 in test [1] and 1.15 in test [2].

For the compound `C[C@@H](Nc1nc(NCCN(C)C)nc(Oc2c(F)c(F)c(F)c(F)c2F)n1)c1ccccc1`, the fold change (FC) in test [1] stood at 0.61; in test [2], 0.78.

As to `CC[C@H](CO)Nc1nc(Oc2c(F)c(F)c(F)c(F)c2F)nc(N(C)Cc2cccc(F)c2)n1`, the fold change (FC) in test [1] was 0.81; in test [2], 0.77.

Regarding `CC[C@@H](CO)Nc1nc(NCc2cccc(F)c2)nc(Oc2c(F)c(F)c(F)c(F)c2F)n1`, the fold change (FC) in test [1] came to 0.61; in test [2], 0.8.

For the compound `CN(C)CCNc1nc(NCc2cccc(F)c2)nc(Oc2c(F)c(F)c(F)c(F)c2F)n1`, the fold change (FC) in test [1] turned out to be 0.59; in test [2], 0.98.

Turning to `CCC(Nc1nc(NCCN(C)C)nc(Oc2c(F)c(F)c(F)c(F)c2F)n1)c1cccc(F)c1` (stereo not drawn), the fold change (FC) in test [1] came to 0.55; in test [2], 0.86.

Take `CC[C@H](CO)Nc1nc(Oc2c(F)c(F)c(F)c(F)c2F)nc(N2CCCc3ccccc3C2)n1`: the values for the fold change (FC) in test [1] and in test [2] were 0.74 and 0.85, respectively.

On to `Fc1cccc(CNc2nc(NCCc3cc4ccccc4[nH]3)nc(Oc3c(F)c(F)c(F)c(F)c3F)n2)c1`, for which the fold change (FC) in test [1] was found to be 1.25; in test [2], 1.09.

`CNc1nc(Oc2c(F)c(F)c(F)c(F)c2F)nc(N(C)[C@H](C)c2ccccc2)n1`: the fold change (FC) in test [1] turned out to be 0.94; in test [2] it was 0.88.

As to `CNc1nc(N[C@H](C)c2ccccc2)nc(Oc2c(F)c(F)c(F)c(F)c2F)n1`, the fold change (FC) worked out at 0.89 in test [1] and 1.16 in test [2].

In the case of `Fc1cccc(CNc2nc(NCC3CCCO3)nc(Oc3c(F)c(F)c(F)c(F)c3F)n2)c1` (stereo not drawn), the fold change (FC) turned out to be 0.95 in test [1] and 1.07 in test [2].

In the case of `CCC(Nc1nc(N[C@H](CC)CO)nc(Oc2c(F)c(F)c(F)c(F)c2F)n1)c1cccc(F)c1` (stereo partly drawn), the fold change (FC) in test [1] was found to be 0.74; in test [2], 0.95.

As for `CC(C)CCNc1nc(NCc2cccc(F)c2)nc(Oc2c(F)c(F)c(F)c(F)c2F)n1`, the fold change (FC) in test [1] stood at 0.89; in test [2] it was 0.7.

As to `CNc1nc(NCc2cccc(F)c2)nc(Oc2c(F)c(F)c(F)c(F)c2F)n1`, the fold change (FC) in test [1] is 0.84; in test [2], 0.89.

For the compound `Fc1cccc(CNc2nc(Oc3c(F)c(F)c(F)c(F)c3F)nc(N3CCOCC3)n2)c1`, the values for the fold change (FC) in test [1] and in test [2] were 0.93 and 0.85, respectively.

Consider `Fc1cccc(CNc2nc(NCc3cccnc3)nc(Oc3c(F)c(F)c(F)c(F)c3F)n2)c1`, for which the values for the fold change (FC) in test [1] and in test [2] were 0.94 and 0.92, respectively.

With `CNc1nc(Oc2c(F)c(F)c(F)c(F)c2F)nc(N2CCCc3ccccc3C2)n1`, the values for the fold change (FC) in test [1] and in test [2] were 0.86 and 0.8, respectively.

For the compound `C[C@H](c1ccccc1)N(C)c1nc(NCCN(C)C)nc(Oc2c(F)c(F)c(F)c(F)c2F)n1`, the fold change (FC) is 1.53 in test [1] and 1.25 in test [2].

On to `FC1(F)N=C(c2ccc(Cl)cc2)SC1(F)c1ccc(Cl)cc1` (stereo not drawn), for which the fold change (FC) in test [1] was 1.37; in test [2] it was 1.51.

On to `CN1CCN(c2nc(NCc3cccc(F)c3)nc(Oc3c(F)c(F)c(F)c(F)c3F)n2)CC1`, for which the fold change (FC) in test [1] turned out to be 0.65; in test [2] it was 0.78.

For the compound `CN(C)C1CCN(c2nc(Oc3c(F)c(F)c(F)c(F)c3F)nc(N3CCCc4ccccc4C3)n2)CC1`, the fold change (FC) in test [1] amounted to 1.51; in test [2], 0.83. The result in the test with HBL, in the test filed under Homo sapiens [3] and in the test filed under Homo sapiens [4] was Active.

`CCN(Cc1ccccc1)c1nc(NCCN(C)C)nc(Oc2c(F)c(F)c(F)c(F)c2F)n1`: the fold change (FC) came out at 1.43 in test [1] and 1.11 in test [2].

As for `Fc1cccc(CNc2nc(NCc3ccncc3)nc(Oc3c(F)c(F)c(F)c(F)c3F)n2)c1`, the fold change (FC) in test [1] turned out to be 0.76; in test [2], 0.77.

As for `CNc1nc(Oc2c(F)c(F)c(F)c(F)c2F)nc(N2CCc3ccccc3C2)n1`, the fold change (FC) stood at 0.87 in test [1] and 0.84 in test [2].
